Results taken from US6753296B1, “Method for improving plant growth” (priority 2002, dated 2004).

Experiments:
Type in all cases: in vivo
Potato = assay: Crop yield of treated potato tubers; settings: potato tubers treated at 500 g per 100 kg seed; harvested at maturity; vs untreated tubers
Experimental: Potato tubers are treated with the composition of the invention containing Imidacloprid, at a rate of 500 g Imidacloprid per 100 kg seed and are planted following procedures which correspond to conditions found in practice. The crop is harvested from the field at maturity. Untreated tubers from the same origin are used for comparison purposes.

[1] = test system: Eggplant (Solanum melongena L. cv. Marfa); assay: Vigor of eggplant after drench treatment
Experimental: (§1) Plant are grown in a commercially available pathogen-free soil mixture. 2 weeks (eggplants 3 weeks) after planting seedlings are transplanted into 600 ml pots and drench treated with 10 mg Thiamethoxam in 20 ml water per pot. They were fertilised once or twice a week. Up to 10 weeks after treatment, fresh- and dry-weight of shoots and roots and numbers of leaves are determined. Protein content is measured by the method of Bradford (1976, Anal. Biochem., 72, 248-254) with BSA (bovine serum albumin) as standard: Homogenisation of leaf material in liquid N2 in a mortar. Extraction in phosphate buffer (pH 7.5, 0.1M, 2/1 vol/weight). After centrifugation supematant is separated from pellet and stored at −20° C. until protein determination. For comparison of treated and check, mg proteing/g fresh weight is calculated.
(§2) Tables B2 and B3: Differences between treated plants and Check given as factors (e.g. fresh weight of treated/Fresh weight of check). Factors >1 indicate an enhancement of vigor of treated plants. FW: fresh weight; DW: dry weight; Protein ((mg/g treated plant)/(mg/g check))

[2] = test system: Rice (Orvza sativa L. cv. Nihonbare); assay: Vigor of rice after drench treatment
Experimental: as §1, §2

Canola = assay: Emergence of canola from treated seed; settings: seed treatment 300 g per 100 kg seed; vs untreated seeds
Experimental: Canola seed is treated with the composition of the invention containing Thiamethoxam, at a rate of 300 g Thiamethoxam per 100 kg seed, and is seeded following procedures which correspond to conditions found in practice. Untreated seeds from the same origin are used for comparison purposes. Emergence (plants per meter) is evaluated. In the case of treated seeds, about 20% more plants per meter emerge that in the case of untreated plants.

For `O=[N+]([O-])NC1=NCCN1Cc1ccc(Cl)nc1` [Imidacloprid], the Crop yield (Potato) was “significantly higher”.

In the case of `CN1COCN(Cc2cnc(Cl)s2)/C1=N\[N+](=O)[O-]` [Thiamethoxam], the “Protein ((mg/g treated plant)/(mg/g check))” value (from here on “Protein”) ([1]; week 1, drench 10 mg per pot) is reported as 1.0, the “Root DW (factor treated/check)” value ([1]; week 1, drench 10 mg per pot) is reported as 1.0 and the “Root FW (factor treated/check)” value ([1]; week 1, drench 10 mg per pot) is reported as 1.0. For the same molecule, the “Shoot DW (factor treated/check)” value ([1]; week 1, drench 10 mg per pot) was 0.9, the “Shoot FW (factor treated/check)” value ([1]; week 1, drench 10 mg per pot) was 0.9 and the “Size (factor treated/check)” value ([1]; week 1, drench 10 mg per pot) was 1.0. The “Protein” value ([1]; week 2, drench 10 mg per pot) was 1.1, the “Root DW (factor treated/check)” value ([1]; week 2, drench 10 mg per pot) was 1.2 and the “Root FW (factor treated/check)” value ([1]; week 2, drench 10 mg per pot) was 1.2. For the same molecule, the “Shoot DW (factor treated/check)” value ([1]; week 2, drench 10 mg per pot) was 1.1, the “Shoot FW (factor treated/check)” value ([1]; week 2, drench 10 mg per pot) was 0.7 and the “Size (factor treated/check)” value ([1]; week 2, drench 10 mg per pot) was 1.1. For the same molecule, the “Protein” value ([1]; week 3, drench 10 mg per pot) was 1.0, the “Root DW (factor treated/check)” value ([1]; week 3, drench 10 mg per pot) was 1.1 and the “Root FW (factor treated/check)” value ([1]; week 3, drench 10 mg per pot) was 1.1. The “Shoot DW (factor treated/check)” value ([1]; week 3, drench 10 mg per pot) was 1.1, the “Shoot FW (factor treated/check)” value ([1]; week 3, drench 10 mg per pot) was 1.2 and the “Size (factor treated/check)” value ([1]; week 3, drench 10 mg per pot) was 1.1. The “Protein” value ([1]; week 4, drench 10 mg per pot) was 1.6, the “Root DW (factor treated/check)” value ([1]; week 4, drench 10 mg per pot) was 1.0 and the “Root FW (factor treated/check)” value ([1]; week 4, drench 10 mg per pot) was 1.0. The “Shoot DW (factor treated/check)” value ([1]; week 4, drench 10 mg per pot) was 1.1, the “Shoot FW (factor treated/check)” value ([1]; week 4, drench 10 mg per pot) was 1.1 and the “Size (factor treated/check)” value ([1]; week 4, drench 10 mg per pot) was 1.0. For the same molecule, the “Leaf No (factor treated/check)” value ([1]; week 5, drench 10 mg per pot) was 1.1, the “Protein” value ([1]; week 5, drench 10 mg per pot) was 1.0 and the “Root DW (factor treated/check)” value ([1]; week 5, drench 10 mg per pot) was 1.0. The “Root FW (factor treated/check)” value ([1]; week 5, drench 10 mg per pot) was 0.9, the “Shoot DW (factor treated/check)” value ([1]; week 5, drench 10 mg per pot) was 1.1 and the “Shoot FW (factor treated/check)” value ([1]; week 5, drench 10 mg per pot) was 1.0. For the same molecule, the “Size (factor treated/check)” value ([1]; week 5, drench 10 mg per pot) was 1.0, the “Leaf No (factor treated/check)” value ([1]; week 6, drench 10 mg per pot) was 1.3 and the “Protein” value ([1]; week 6, drench 10 mg per pot) was 1.1. For the same molecule, the “Root DW (factor treated/check)” value ([1]; week 6, drench 10 mg per pot) was 0.9, the “Root FW (factor treated/check)” value ([1]; week 6, drench 10 mg per pot) was 0.9 and the “Shoot DW (factor treated/check)” value ([1]; week 6, drench 10 mg per pot) was 1.3. For the same molecule, the “Shoot FW (factor treated/check)” value ([1]; week 6, drench 10 mg per pot) was 1.3, the “Size (factor treated/check)” value ([1]; week 6, drench 10 mg per pot) was 1.3 and the “Leaf No (factor treated/check)” value ([1]; week 7, drench 10 mg per pot) was 1.3. For the same molecule, the “Protein” value ([1]; week 7, drench 10 mg per pot) was 1.4, the “Root DW (factor treated/check)” value ([1]; week 7, drench 10 mg per pot) was 0.7 and the “Root FW (factor treated/check)” value ([1]; week 7, drench 10 mg per pot) was 0.8. For the same molecule, the “Shoot DW (factor treated/check)” value ([1]; week 7, drench 10 mg per pot) was 1.1, the “Shoot FW (factor treated/check)” value ([1]; week 7, drench 10 mg per pot) was 1.1 and the “Size (factor treated/check)” value ([1]; week 7, drench 10 mg per pot) was 1.2. The “Leaf No (factor treated/check)” value ([1]; week 8, drench 10 mg per pot) was 1.2, the “Protein” value ([1]; week 8, drench 10 mg per pot) was 1.4 and the “Root DW (factor treated/check)” value ([1]; week 8, drench 10 mg per pot) was 0.6. For the same molecule, the “Root FW (factor treated/check)” value ([1]; week 8, drench 10 mg per pot) was 0.6, the “Shoot DW (factor treated/check)” value ([1]; week 8, drench 10 mg per pot) was 0.9 and the “Shoot FW (factor treated/check)” value ([1]; week 8, drench 10 mg per pot) was 0.7. For the same molecule, the “Size (factor treated/check)” value ([1]; week 8, drench 10 mg per pot) was 1.2, the “Leaf No (factor treated/check)” value ([1]; week 9, drench 10 mg per pot) was 1.6 and the “Protein” value ([1]; week 9, drench 10 mg per pot) was 2.5. For the same molecule, the “Root DW (factor treated/check)” value ([1]; week 9, drench 10 mg per pot) was 1.1, the “Root FW (factor treated/check)” value ([1]; week 9, drench 10 mg per pot) was 0.9 and the “Shoot DW (factor treated/check)” value ([1]; week 9, drench 10 mg per pot) was 1.1. The “Shoot FW (factor treated/check)” value ([1]; week 9, drench 10 mg per pot) was 0.7, the “Size (factor treated/check)” value ([1]; week 9, drench 10 mg per pot) was 1.4 and the “Leaf No (factor treated/check)” value ([1]; week 10, drench 10 mg per pot) was 1.4. The “Protein” value ([1]; week 10, drench 10 mg per pot) was 1.3, the “Root DW (factor treated/check)” value ([1]; week 10, drench 10 mg per pot) was 1.3 and the “Root FW (factor treated/check)” value ([1]; week 10, drench 10 mg per pot) was 1.1. For the same molecule, the “Shoot DW (factor treated/check)” value ([1]; week 10, drench 10 mg per pot) was 1.1, the “Shoot FW (factor treated/check)” value ([1]; week 10, drench 10 mg per pot) was 1.1 and the “Size (factor treated/check)” value ([1]; week 10, drench 10 mg per pot) was 1.4. For the same molecule, the “Protein” value ([2]; week 1, drench 10 mg per pot) was 1.1, the “Root DW (factor treated/check)” value ([2]; week 1, drench 10 mg per pot) was 0.8 and the “Root FW (factor treated/check)” value ([2]; week 1, drench 10 mg per pot) was 1.0. The “Shoot DW (factor treated/check)” value ([2]; week 1, drench 10 mg per pot) was 1.0, the “Shoot FW (factor treated/check)” value ([2]; week 1, drench 10 mg per pot) was 1.0 and the “Size (factor treated/check)” value ([2]; week 1, drench 10 mg per pot) was 1.0. For the same molecule, the “Protein” value ([2]; week 2, drench 10 mg per pot) was 1.0, the “Root DW (factor treated/check)” value ([2]; week 2, drench 10 mg per pot) was 1.1 and the “Root FW (factor treated/check)” value ([2]; week 2, drench 10 mg per pot) was 0.8. For the same molecule, the “Shoot DW (factor treated/check)” value ([2]; week 2, drench 10 mg per pot) was 1.1, the “Shoot FW (factor treated/check)” value ([2]; week 2, drench 10 mg per pot) was 1.0 and the “Size (factor treated/check)” value ([2]; week 2, drench 10 mg per pot) was 1.0. The “Protein” value ([2]; week 3, drench 10 mg per pot) was 1.0, the “Root DW (factor treated/check)” value ([2]; week 3, drench 10 mg per pot) was 1.3 and the “Root FW (factor treated/check)” value ([2]; week 3, drench 10 mg per pot) was 0.6. The “Shoot DW (factor treated/check)” value ([2]; week 3, drench 10 mg per pot) was 1.3, the “Shoot FW (factor treated/check)” value ([2]; week 3, drench 10 mg per pot) was 1.2 and the “Size (factor treated/check)” value ([2]; week 3, drench 10 mg per pot) was 1.0. The “Protein” value ([2]; week 4, drench 10 mg per pot) was 1.0, the “Root DW (factor treated/check)” value ([2]; week 4, drench 10 mg per pot) was 1.4 and the “Root FW (factor treated/check)” value ([2]; week 4, drench 10 mg per pot) was 1.5. The “Shoot DW (factor treated/check)” value ([2]; week 4, drench 10 mg per pot) was 1.2, the “Shoot FW (factor treated/check)” value ([2]; week 4, drench 10 mg per pot) was 1.3 and the “Size (factor treated/check)” value ([2]; week 4, drench 10 mg per pot) was 1.1. For the same molecule, the “Protein” value ([2]; week 5, drench 10 mg per pot) was 1.0, the “Root DW (factor treated/check)” value ([2]; week 5, drench 10 mg per pot) was 0.9 and the “Root FW (factor treated/check)” value ([2]; week 5, drench 10 mg per pot) was 1.0. For the same molecule, the “Shoot DW (factor treated/check)” value ([2]; week 5, drench 10 mg per pot) was 1.1, the “Shoot FW (factor treated/check)” value ([2]; week 5, drench 10 mg per pot) was 1.2 and the “Size (factor treated/check)” value ([2]; week 5, drench 10 mg per pot) was 1.1. The “Protein” value ([2]; week 6, drench 10 mg per pot) was 1.0, the “Root DW (factor treated/check)” value ([2]; week 6, drench 10 mg per pot) was 1.5 and the “Root FW (factor treated/check)” value ([2]; week 6, drench 10 mg per pot) was 1.6. For the same molecule, the “Shoot DW (factor treated/check)” value ([2]; week 6, drench 10 mg per pot) was 1.1, the “Shoot FW (factor treated/check)” value ([2]; week 6, drench 10 mg per pot) was 1.3 and the “Size (factor treated/check)” value ([2]; week 6, drench 10 mg per pot) was 1.2. For the same molecule, the “Protein” value ([2]; week 7, drench 10 mg per pot) was 1.1, the “Root DW (factor treated/check)” value ([2]; week 7, drench 10 mg per pot) was 1.3 and the “Root FW (factor treated/check)” value ([2]; week 7, drench 10 mg per pot) was 1.3. The “Shoot DW (factor treated/check)” value ([2]; week 7, drench 10 mg per pot) was 1.2, the “Shoot FW (factor treated/check)” value ([2]; week 7, drench 10 mg per pot) was 1.3 and the “Size (factor treated/check)” value ([2]; week 7, drench 10 mg per pot) was 1.1. The “Protein” value ([2]; week 8, drench 10 mg per pot) was 1.0, the “Root DW (factor treated/check)” value ([2]; week 8, drench 10 mg per pot) was 1.5 and the “Root FW (factor treated/check)” value ([2]; week 8, drench 10 mg per pot) was 1.8. For the same molecule, the “Shoot DW (factor treated/check)” value ([2]; week 8, drench 10 mg per pot) was 1.4, the “Shoot FW (factor treated/check)” value ([2]; week 8, drench 10 mg per pot) was 1.4 and the “Size (factor treated/check)” value ([2]; week 8, drench 10 mg per pot) was 1.1. For the same molecule, the “Protein” value ([2]; week 9, drench 10 mg per pot) was 0.9, the “Root DW (factor treated/check)” value ([2]; week 9, drench 10 mg per pot) was 1.0 and the “Root FW (factor treated/check)” value ([2]; week 9, drench 10 mg per pot) was 1.0. For the same molecule, the “Shoot DW (factor treated/check)” value ([2]; week 9, drench 10 mg per pot) was 1.2, the “Shoot FW (factor treated/check)” value ([2]; week 9, drench 10 mg per pot) was 1.2 and the “Size (factor treated/check)” value ([2]; week 9, drench 10 mg per pot) was 1.2. For the same molecule, the “Protein” value ([2]; week 10, drench 10 mg per pot) was 0.7, the “Root DW (factor treated/check)” value ([2]; week 10, drench 10 mg per pot) was 2.0 and the “Root FW (factor treated/check)” value ([2]; week 10, drench 10 mg per pot) was 2.0. The “Shoot DW (factor treated/check)” value ([2]; week 10, drench 10 mg per pot) was 1.3, the “Shoot FW (factor treated/check)” value ([2]; week 10, drench 10 mg per pot) was 1.3 and the “Size (factor treated/check)” value ([2]; week 10, drench 10 mg per pot) was 1.3. The “Emergence (plants per meter), more plants than untreated” value (Canola) was “about 20%”.
